Experimental data as given in patent publication US10286034B2, “Uses of bremelanotide in therapy for female sexual dysfunction” (Palatin Technologies, Inc., priority 2012, dated 2019).

Experiments:
[1] = Example 1: plasma pharmacokinetics after in-clinic subcutaneous dose; type: in vivo, human
Description: Ambulatory blood pressure monitoring was conducted following both placebo and randomized treatment group in-clinic administrations. Three periods of ambulatory blood pressure monitoring were included, the first period was from before to 24 hours after a single, in-clinic dose of placebo (to establish a baseline); the second and third periods occurred from before to 24 hours after each of 2 single, in-clinic doses of double-blind treatment, administered within 14 days of each other. Blood samples for pharmacokinetic analysis were collected before and at 0.5, 1.0, and 2.0 hours after each in-clinic bremelanotide single-dose treatment (double-blind only), to permit analysis of concentration-response relationships.
Mean pharmacokinetic parameters were determined by bremelanotide dose and visit, including Cmax determinations (the highest ng/mL concentration at either 0.5 or 1 hour post administration) and AUC determinations at two hours and, for a subset of subjects in each group, at four hours.
The Cmax for the mean curve was calculated by averaging the concentrations at each time point (0.5, 1, 2 and 4 hours), and this is shown in FIG. 3.

female rats = conditions: cited from earlier work
[2] = system: men diagnosed with erectile dysfunction; conditions: subcutaneous injection of 4 or 6 mg; cited from earlier work

In the case of `CCCC[C@H](NC(C)=O)C(=O)N[C@H]1CC(=O)NCCCC[C@@H](C(=O)O)NC(=O)[C@H](Cc2c[nH]c3ccccc23)NC(=O)[C@H](CCCNC(=N)N)NC(=O)[C@@H](Cc2ccccc2)NC(=O)[C@H](Cc2c[nH]cn2)NC1=O` [bremelanotide, Ac-Nle-cyclo(-Asp-His-D-Phe-Arg-Trp-Lys)-OH], the “AUC(0-2 h) % CV” value ([1]; 0.75 mg SC, Visit 5) is reported as 24%, the “AUC(0-2 h) Max” value ([1]; 0.75 mg SC, Visit 5) is reported as 85 ng·h/mL and the “AUC(0-2 h) Mean” value ([1]; 0.75 mg SC, Visit 5) is reported as 53 ng·h/mL. The “AUC(0-2 h) Median” value ([1]; 0.75 mg SC, Visit 5) was 52 ng·h/mL, the “AUC(0-2 h) Min” value ([1]; 0.75 mg SC, Visit 5) was 25 ng·h/mL and the “AUC(0-4 h) % CV” value ([1]; 0.75 mg SC, Visit 5) was 23%. The “AUC(0-4 h) Max” value ([1]; 0.75 mg SC, Visit 5) was 126 ng·h/mL, the “AUC(0-4 h) Mean” value ([1]; 0.75 mg SC, Visit 5) was 84 ng·h/mL and the “AUC(0-4 h) Median” value ([1]; 0.75 mg SC, Visit 5) was 80 ng·h/mL. For the same molecule, the “AUC(0-4 h) Min” value ([1]; 0.75 mg SC, Visit 5) was 50 ng·h/mL, the “Cmax % CV” value ([1]; 0.75 mg SC, Visit 5) was 27% and the “Cmax Max” value ([1]; 0.75 mg SC, Visit 5) was 60 ng/mL. The “Cmax Median” value ([1]; 0.75 mg SC, Visit 5) was 36 ng/mL, the “Cmax Min” value ([1]; 0.75 mg SC, Visit 5) was 17 ng/mL and the “AUC(0-2 h) % CV” value ([1]; 0.75 mg SC, Visit 7) was 24%. For the same molecule, the “AUC(0-2 h) Max” value ([1]; 0.75 mg SC, Visit 7) was 92 ng·h/mL, the “AUC(0-2 h) Mean” value ([1]; 0.75 mg SC, Visit 7) was 53 ng·h/mL and the “AUC(0-2 h) Median” value ([1]; 0.75 mg SC, Visit 7) was 52 ng·h/mL. For the same molecule, the “AUC(0-2 h) Min” value ([1]; 0.75 mg SC, Visit 7) was 26 ng·h/mL, the “AUC(0-4 h) % CV” value ([1]; 0.75 mg SC, Visit 7) was 20% and the “AUC(0-4 h) Max” value ([1]; 0.75 mg SC, Visit 7) was 120 ng·h/mL. The “AUC(0-4 h) Mean” value ([1]; 0.75 mg SC, Visit 7) was 80 ng·h/mL, the “AUC(0-4 h) Median” value ([1]; 0.75 mg SC, Visit 7) was 79 ng·h/mL and the “AUC(0-4 h) Min” value ([1]; 0.75 mg SC, Visit 7) was 51 ng·h/mL. The “Cmax % CV” value ([1]; 0.75 mg SC, Visit 7) was 27%, the “Cmax Max” value ([1]; 0.75 mg SC, Visit 7) was 78 ng/mL and the “Cmax Mean” value ([1]; 0.75 mg SC, Visit 7) was 38 ng/mL. The “Cmax Min” value ([1]; 0.75 mg SC, Visit 7) was 20 ng/mL, the “AUC(0-2 h) % CV” value ([1]; 1.25 mg SC, Visit 5) was 25% and the “AUC(0-2 h) Max” value ([1]; 1.25 mg SC, Visit 5) was 148 ng·h/mL. The “AUC(0-2 h) Mean” value ([1]; 1.25 mg SC, Visit 5) was 86 ng·h/mL, the “AUC(0-2 h) Median” value ([1]; 1.25 mg SC, Visit 5) was 81 ng·h/mL and the “AUC(0-2 h) Min” value ([1]; 1.25 mg SC, Visit 5) was 42 ng·h/mL. The “AUC(0-4 h) % CV” value ([1]; 1.25 mg SC, Visit 5) was 20%, the “AUC(0-4 h) Max” value ([1]; 1.25 mg SC, Visit 5) was 187 ng·h/mL and the “AUC(0-4 h) Median” value ([1]; 1.25 mg SC, Visit 5) was 136 ng·h/mL. For the same molecule, the “AUC(0-4 h) Min” value ([1]; 1.25 mg SC, Visit 5) was 86 ng·h/mL, the “Cmax % CV” value ([1]; 1.25 mg SC, Visit 5) was 31% and the “Cmax Max” value ([1]; 1.25 mg SC, Visit 5) was 126 ng/mL. For the same molecule, the “Cmax Mean” value ([1]; 1.25 mg SC, Visit 5) was 60 ng/mL, the “Cmax Min” value ([1]; 1.25 mg SC, Visit 5) was 29 ng/mL and the “AUC(0-2 h) % CV” value ([1]; 1.25 mg SC, Visit 7) was 25%. The “AUC(0-2 h) Max” value ([1]; 1.25 mg SC, Visit 7) was 144 ng·h/mL, the “AUC(0-2 h) Mean” value ([1]; 1.25 mg SC, Visit 7) was 84 ng·h/mL and the “AUC(0-2 h) Median” value ([1]; 1.25 mg SC, Visit 7) was 84 ng·h/mL. For the same molecule, the “AUC(0-2 h) Min” value ([1]; 1.25 mg SC, Visit 7) was 24 ng·h/mL, the “AUC(0-4 h) % CV” value ([1]; 1.25 mg SC, Visit 7) was 25% and the “AUC(0-4 h) Max” value ([1]; 1.25 mg SC, Visit 7) was 199 ng·h/mL. For the same molecule, the “AUC(0-4 h) Mean” value ([1]; 1.25 mg SC, Visit 7) was 142 ng·h/mL, the “AUC(0-4 h) Median” value ([1]; 1.25 mg SC, Visit 7) was 144 ng·h/mL and the “AUC(0-4 h) Min” value ([1]; 1.25 mg SC, Visit 7) was 39 ng·h/mL. The “Cmax % CV” value ([1]; 1.25 mg SC, Visit 7) was 33%, the “Cmax Max” value ([1]; 1.25 mg SC, Visit 7) was 150 ng/mL and the “Cmax Mean” value ([1]; 1.25 mg SC, Visit 7) was 60 ng/mL. The “Cmax Median” value ([1]; 1.25 mg SC, Visit 7) was 60 ng/mL, the “Cmax Min” value ([1]; 1.25 mg SC, Visit 7) was 18 ng/mL and the “AUC(0-2 h) % CV” value ([1]; 1.75 mg SC, Visit 5) was 23%. For the same molecule, the “AUC(0-2 h) Max” value ([1]; 1.75 mg SC, Visit 5) was 171 ng·h/mL, the “AUC(0-2 h) Min” value ([1]; 1.75 mg SC, Visit 5) was 17 ng·h/mL and the “AUC(0-4 h) % CV” value ([1]; 1.75 mg SC, Visit 5) was 29%. For the same molecule, the “AUC(0-4 h) Max” value ([1]; 1.75 mg SC, Visit 5) was 289 ng·h/mL, the “AUC(0-4 h) Median” value ([1]; 1.75 mg SC, Visit 5) was 179 ng·h/mL and the “AUC(0-4 h) Min” value ([1]; 1.75 mg SC, Visit 5) was 25 ng·h/mL. For the same molecule, the “Cmax % CV” value ([1]; 1.75 mg SC, Visit 5) was 25%, the “Cmax Mean” value ([1]; 1.75 mg SC, Visit 5) was 77 ng/mL and the “Cmax Median” value ([1]; 1.75 mg SC, Visit 5) was 78 ng/mL. For the same molecule, the “AUC(0-2 h) % CV” value ([1]; 1.75 mg SC, Visit 7) was 25%, the “AUC(0-2 h) Max” value ([1]; 1.75 mg SC, Visit 7) was 176 ng·h/mL and the “AUC(0-2 h) Median” value ([1]; 1.75 mg SC, Visit 7) was 111 ng·h/mL. For the same molecule, the “AUC(0-2 h) Min” value ([1]; 1.75 mg SC, Visit 7) was 28 ng·h/mL, the “AUC(0-4 h) % CV” value ([1]; 1.75 mg SC, Visit 7) was 25% and the “AUC(0-4 h) Max” value ([1]; 1.75 mg SC, Visit 7) was 276 ng·h/mL. The “AUC(0-4 h) Mean” value ([1]; 1.75 mg SC, Visit 7) was 184 ng·h/mL, the “AUC(0-4 h) Median” value ([1]; 1.75 mg SC, Visit 7) was 180 ng·h/mL and the “AUC(0-4 h) Min” value ([1]; 1.75 mg SC, Visit 7) was 72 ng·h/mL. For the same molecule, the “Cmax % CV” value ([1]; 1.75 mg SC, Visit 7) was 25%, the “Cmax Max” value ([1]; 1.75 mg SC, Visit 7) was 127 ng/mL and the “Cmax Mean” value ([1]; 1.75 mg SC, Visit 7) was 78 ng/mL. For the same molecule, the “Cmax Median” value ([1]; 1.75 mg SC, Visit 7) was 77 ng/mL, the “Cmax Min” value ([1]; 1.75 mg SC, Visit 7) was 27 ng/mL and the “Cmax % CV” value ([1]; 1.75 mg subcutaneous dose) was 25%. The “median Cmax” value ([1]; 1.75 mg subcutaneous dose) was 78 ng/mL, the “effect on sexual behavior” value (female rats) was “selective pharmacological effect on appetitive sexual behavior” and the Fos induction (female rats; subcutaneous injections) was “inducing the immediate-early gene product Fos in a variety of limbic and hypothalamic structures”. The dopamine release (female rats; subcutaneous injections) was “increasing dopamine release in the medial preoptic area” and the erectile response [2] was “statistically significant erectile response compared to placebo”.
